2 compounds from patent US20100261666A1, “COMPOSITIONS AND METHODS FOR THE TREATMENT OF MYOCARDIAL DYSFUNCTION ASSOCIATED WITH SIRS OR SEPSIS” (THE BOARD OF TRUSTEES OF THE UNIVERSITY OF ILLINOIS, priority 2009, published 2010) can be followed below.

Molecules are shown by their SMILES.

One test relates to TNF-α. The test can be described thus: Real time PCR, left ventricular TNF-α mRNA expression. The test is classed as in vivo, rat. The note with it: LPS infusion. How it is done:
Total RNA was isolated from left ventricular tissue using the SV Total Isolation System (Promega Corp., Madison, Wis.). Isolation was performed according to manufacturer instructions and followed by DNAse treatment to eliminate residual genomic DNA contamination. RNA integrity was determined by loading 1.0 μg of total RNA isolate from each sample onto a 1.0% agarose gel and staining with ethidium bromide to visualize the 18 and 28s RNA bands. The amount of RNA recovered was determined using the Ribogreen RNA Quantification Kit (Molecular Probes, Eugene, Oreg.). […]
Specific primer sequences, GenBank accession numbers, Sequence Identifiers, and product sizes are disclosed in Table 5. […] For real-time PCRs, SYBR PCR Master Mix (Bio-Rad Laboratories, Hercules, Calif.) was used, and thermocycling and fluorescence detection was performed using a Stratagene Mx3000p real-time PCR machine.
After confirmation of primer efficiency and specificity, the concentrations of purified products generated by standard PCR were determined using Molecular Probe's Picogreen DNA quantification kit, and PCR products were serially diluted to obtain standards containing 10^1, 10^2, 10^3, 10^4, 10^5, and 10^6 copies of synthetic template. […]

The test system of another test is ADA1. Briefly: Real time PCR, left ventricular ADA1 mRNA expression. The test is classed as in vivo, rat. How it is done: Total RNA was isolated from left ventricular tissue using the SV Total Isolation System (Promega Corp., Madison, Wis.). Isolation was performed according to manufacturer instructions and followed by DNAse treatment to eliminate residual genomic DNA contamination. RNA integrity was determined by loading 1.0 μg of total RNA isolate from each sample onto a 1.0% agarose gel and staining with ethidium bromide to visualize the 18 and 28s RNA bands. The amount of RNA recovered was determined using the Ribogreen RNA Quantification Kit (Molecular Probes, Eugene, Oreg.). 1 μg of total RNA was reverse transcribed in a […] using random hexamer primers with enzyme and buffers supplied in the cDNA First Strand Synthesis kit (MRI Fermentas, Hanover, Md.). First strand cDNA was treated with ribonuclease H to remove residual RNA.
Real time PCR (qPCR) was performed to measure RNA transcripts for left ventricular TNF-α and ADA1. Three housekeeping genes were selected as follows to produce an intergroup correction factor for target transcripts: Cyclophilin A, hypoxanthine-guanine physphoribosyltransferase (HPRT), and β-actin. Primers were selected using Primer 3 software (Rosen and Skaletsky, Whitehead Institute for Biomedical Research) with the rat genomic sequences for TNF gene, ADA gene, HPRT gene, β-actin gene, and Cyclophilin gene as templates. BLAST (National Center for Biotechnology Information) searches were used to verify that the selected primers were specific for the designated target.
Specific primer sequences, GenBank accession numbers, Sequence Identifiers, and product sizes are disclosed in Table 5. Primers were used in a standard PCR with the 2× Master Mix PCR reagent (MRI Fermentas) and cDNA from the tissue of interest as a template. The thermocycling profile consisted of one cycle of 95° C. for 10 minutes, followed by 41 cycles of 95° C. for 1 minute, 61° C. for 1 minute, and 72° C. for 1 minute and a final cycle of 72° C. for 10 minutes. Products were run on a 1.0% agarose gel and stained with ethidium bromide to confirm that only one band was amplified and that no primer dimers were present. PCR products were then column-purified (QIAGEN, Valencia, Calif.) and sequenced to confirm target specificity. For real-time PCRs, SYBR PCR Master Mix (Bio-Rad Laboratories, Hercules, Calif.) was used, and thermocycling and fluorescence detection was performed using a Stratagene Mx3000p real-time PCR machine.
Standards were then amplified by real-time PCR, and standard curves were generated using Stratagene Mx3000P software. […]
A housekeeping gene was selected for normalization of the real-time PCR data for the TNF-α and ADA1 transcripts. Three potential gene (mRNA) products were analyzed for this purpose: CYC, β-actin and HPRT.
For orientation: Quantitative PCR measures a nucleic acid by following its amplification.

Regarding `OC[C@H]1O[C@@H](n2cnc3c2N=CNCC3O)CC1O` (stereo in doubt) [dCF, 2′-deoxycoformycin], in the test on TNF-α, the “left ventricular TNF-α mRNA expression compared to LPS hearts” value is listed as “did not significantly alter”. For the same compound, the “left ventricular ADA1 mRNA expression (copy numbers) compared to CON and LPS hearts” value with ADA1 (LPS infusion) and with ADA1 (vehicle infusion) was “significantly lower” each time.

Take `Oc1ncnc2[nH]ncc12` [ALO, allopurinol]: the “left ventricular TNF-α mRNA expression compared to LPS hearts” value with TNF-α was “significantly lower”. Further, the “left ventricular ADA1 mRNA expression (copy numbers) compared to CON and LPS hearts” value with ADA1 (LPS infusion) and in the test with ADA1 (vehicle infusion) was “No significant differences” in each case.
